Literature values as cited in US9750812B2, “Lipid based pharmaceutical preparations for oral and topical application; their compositions, methods, and uses thereof” (JINA PHARMACEUTICALS, INC., priority 2008, dated 2017).

**Q.** Which results are given for `CC(C)(C)NC(=O)[C@H]1CC[C@H]2[C@@H]3CC[C@H]4NC(=O)C=C[C@]4(C)[C@H]3CC[C@]12C` [finasteride, (5α, 17β)-N-(1,1-dimethylethyl)-3-oxo-4-azaandrost-1-ene-17-carboxamide]?
**A.** solubility in organic solvents (organic solvents such as ethanol and methanol): soluble; solubility in water (water): practically insoluble
